The record followed here is US5658939A, “Methionine sulfone and S-substituted cysteine sulfone derivatives as enzyme inhibitors” (Corvas International Inc., priority 1995, dated 1997).

For orientation: IC50 means the concentration that inhibits the measured activity by half. By Ki is commonly meant the dissociation constant of the complex between target and ligand, obtained from inhibition or displacement. The ED50 is the dose at which the effect has come halfway, by size or by number of responders.

Assay [1] concerns the target Purified human alpha-thrombin (Homo sapiens, UniProt P00734). Briefly: in vitro thrombin inhibition assay, IC50 (chromogenic substrate Pefachrome t-PA). The class given is biochemical. Conditions: Table 1; 0.25 nM thrombin, 300 μM substrate, pH 7.5, 30 minute incubation. The protocol:
(§1) The ability of the compounds of the present invention to act as inhibitors of thrombin and plasmin catalytic activity was assessed by determining the concentration which inhibited enzyme activity by 50%, (IC50), using the purified human enzymes.
(§2) The buffer used for all assays was HBSA (10 mM HEPES, pH 7.5, 150 mM sodium chloride, 0.1% bovine serum albumin).
(§3) The assay for IC50 determinations was conducted by combining in appropriate wells of a Corning microtiter plate, 50 microliters of HBSA, 50 microliters of the test compound at a specified concentration (covering a broad concentration range) diluted in HBSA (or HBSA alone for Vo (uninhibited velocity) measurement), and 50 microliters of the enzyme diluted in HBSA. Following a 30 minute incubation at ambient temperature, 50 microliters of the substrate at the concentrations specified below, was added to the wells yielding a final total volume of 200 microliters. The initial velocity of chromogenic substrate hydrolysis was measured by the change in absorbance at 405 nm using a Thermo Max® Kinetic Microplate Reader over a 5 minute period in which less than 5% of the added substrate was utilized. The concentration of added inhibitor which caused a 50% decrease in the initial rate of hydrolysis was defined as the IC50 value.
Thrombin catalytic activity was determined using the chromogenic substrate Pefachrome t-PA (CH3 SO2 -D-hexahydrotyrosine-glycyl-L-arginine-p-nitroaniline, obtained from Pentapharm Ltd.). The substrate was made up in deionized water followed by dilution in HBSA prior to the assay in which the final concentration was 300 μM (about 10-times Km). Purified human alpha-thrombin was obtained from Enzyme Research Laboratories, Inc. The enzyme was diluted into HBSA prior to the assay in which the final concentration was 0.25 nM.

The next assay deals with Purified human plasmin (Homo sapiens, UniProt P00747). In words: in vitro plasmin inhibition assay, IC50 (chromogenic substrate S-2251). The format is biochemical. Particulars: Table 1; 1.0 nM plasmin, 300 μM substrate, pH 7.5, 30 minute incubation. The protocol:
as §1, §2, §3
Plasmin catalytic activity was determined using the chromogenic substrate, S-2251 [D-valyl-L-leucyl-L-lysine-p-nirtoanilide dihydrochloride], which was obtained from Kabi Diagnostica. The substrate was made up in deionized water followed by dilution in HBSA prior to the assay in which the final concentration was 300 μM (about 5-times Km). Purified human plasmin was obtained from Enzyme Research Laboratories, Inc. The enzyme was diluted into HBSA prior to assay in which the final concentration was 1.0 nM.

The target of another assay is human alpha-thrombin (Homo sapiens, UniProt P00734). Briefly: Determination of inhibition constant Ki for thrombin (steady state velocities, Pefachrome t-PA). The class given is biochemical. The protocol: The ability of the compounds of the present invention to act as inhibitors of thrombin catalytic activity was assessed by determining their inhibition constant, Ki.
Enzyme activity was determined using the chromogenic substrate Pefachrome t-PA (CH3 SO2 -D-hexahydrotyrosine-glycyl-L-arginine-p-nitroaniline), obtained from Pentapharm Ltd. The substrate was reconstituted in deionized water prior to use. Purified human alpha-thrombin (3000U/mg specific activity) was obtained from Enzyme Research Laboratories, Inc. The buffer used for all assays was HBSA (10 mM HEPES, pH 7.5, 150 mM sodium chloride, 0.1% bovine serum albumin).
Velocities of chromogenic substrate hydrolysis which occurred over 40 minutes was measured by the change in absorbance at 405 nm using a Thermo Max® Kinetic Microplate Reader.
Ki values were determined for test compounds using the relationships developed by Williams and Morrison, Methods in Enzymology, 63:437 (1979) using steady state velocities (Vs) measured over 40 minutes. The extent of substrate hydrolysis was less than 5% over the course of this assay.
Table 2 below gives the Ki values for selected test compounds.

The subject of the next assay is rat plasma. In words: activated partial thromboplastin time (APTT) in citrated rat plasma. Particulars: control clotting time 19.75 sec. The class given is biochemical. The protocol: (§4) The ex Vivo anticoagulant effects of BzlSO2 -Met[S(O2)]-Pro-Arg-al was determined by measuring the prolongation of the activated partial thromboplastin time (APTT) over a broad concentration range of the added inhibitor, using pooled normal human and rat plasma. Fresh frozen citrated pooled normal human plasma was obtained from George King Biomedical, Overland Park, Kans. Pooled normal rat plasma was prepared from citrated whole blood collected from anesthetized rats using standard procedures. The plasma was flash frozen and stored at -80° C. until use. Measurements APTT was made using the Coag-A-Mate RA4 automated coagulometer (General Diagnostics, Organon Technica, Oklahoma City, Okla.) using the Automated APTT reagent (Organon Technica, Durham, N.C.) as the initiator of clotting according to the manufacturer's instructions.
(§5) The assay was conducted by making a series of dilutions of the test compounds in rapidly thawed plasma followed by adding 200 microliters to the wells of the assay carousel.
(§6) The elevation in APTT due to increasing concentration of compound is presented relative to the control clotting time for rat (19.75 sec) and human (28.3 sec) plasma which is set to a value of 1.0.

The next assay deals with human plasma. In words: activated partial thromboplastin time (APTT) in citrated human plasma. Conditions: control clotting time 28.3 sec. The class given is biochemical. The protocol: as §4, §5, §6
In another assay the test system is rat carotid artery. Briefly: Rat model of FeCl3-induced platelet-dependent arterial thrombosis. The class given is in vivo, rat (Male Harlan Sprague Dawley).

Where two headings read alike, the source gives them in different places.

Chain of Purified human plasmin (P00747 581-810 limits assumed): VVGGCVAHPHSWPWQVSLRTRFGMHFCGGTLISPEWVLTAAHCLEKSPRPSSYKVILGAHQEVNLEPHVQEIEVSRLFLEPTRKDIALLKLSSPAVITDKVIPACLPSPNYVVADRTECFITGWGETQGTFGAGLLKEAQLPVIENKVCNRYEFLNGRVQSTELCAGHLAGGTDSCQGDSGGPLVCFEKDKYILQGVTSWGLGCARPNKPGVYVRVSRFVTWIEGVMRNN
Chain of Purified human plasmin (P00747 97-580 limits assumed): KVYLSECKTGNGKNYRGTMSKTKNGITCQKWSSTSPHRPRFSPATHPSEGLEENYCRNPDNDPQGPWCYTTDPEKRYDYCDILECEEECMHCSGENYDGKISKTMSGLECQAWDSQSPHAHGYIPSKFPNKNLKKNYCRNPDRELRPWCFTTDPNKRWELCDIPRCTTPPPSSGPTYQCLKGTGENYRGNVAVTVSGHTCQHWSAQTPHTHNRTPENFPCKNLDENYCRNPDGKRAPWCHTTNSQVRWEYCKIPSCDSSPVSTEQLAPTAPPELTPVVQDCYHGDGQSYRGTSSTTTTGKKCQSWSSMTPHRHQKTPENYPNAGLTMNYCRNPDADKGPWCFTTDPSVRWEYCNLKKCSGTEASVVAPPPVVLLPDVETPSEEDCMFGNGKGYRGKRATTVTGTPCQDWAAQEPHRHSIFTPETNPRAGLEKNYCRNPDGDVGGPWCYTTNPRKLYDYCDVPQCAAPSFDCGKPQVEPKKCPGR
From the text for rat carotid artery: In this model a platelet-rich, occlusive thrombus is formed in a segment of the rat carotid artery treated locally with a fresh solution of FeCl3 absorbed to a piece of filter paper. The FeCl3 is thought to diffuse into the treated segment of artery and causes de-endothelialization of the affected vessel surface. […] The effect of a test compound on the incidence of occlusive thrombus formation following the application of the FeCl3 is monitored by ultrasonic flowtometry and is used as the primary end point. […] Male Harlan Sprague Dawley rats (420-450 g) were acclimated at least 72 hours prior to use and fasted for 12 hours prior to surgery with free access to water. The animals were prepared, anesthetized with Nembutal followed by the insertion of catheters for blood pressure monitoring, drug and anesthesia delivery. The left carotid artery was isolated by making a midline cervical incision followed by blunt dissection and spreading techniques to separate a 2 cm segment of the vessel from the carotid sheath. A silk suture was inserted under the proximal and distal ends of the isolated vessel to provide clearance for the placement of a ultrasonic flow probe (Transonic) around the proximal end of the vessel. The probe was then secured with a stationary arm. […] The test compound was administered as a single intravenous bolus at the doses outlined in Table 3 after placement of the flow probe and 5 minutes prior to the application of the FeCl3 thrombogenic stimulus (t=0). […] Blood pressure, blood flow, heart rate, and respiration were monitored for 60 minutes. The incidence of occlusion (defined as the attainment of zero blood flow) was recorded as the primary end point.

As to `CS(=O)(=O)CC[C@H](NS(=O)(=O)Cc1ccccc1)C(=O)N1CCC[C@H]1C(=O)N[C@H](C=O)CCCNC(=N)N` [Example 27, N-benzylsulfonyl-L-methionine sulfone-L-proline-L-argininal], the IC50 in assay [1] was found to be 1 nM; against Purified human plasmin it was 86 nM. Besides, the Ki at human alpha-thrombin (Table 2, human alpha-thrombin 0.5 nM, steady state velocities over 40 minutes, read-out: Inhibitor Constants (Ki)) was found to be 1.06 nM; on human alpha-thrombin (Table 4, determined using human alphathrombin (footnote a), read-out: Ki), 1.06 nM. The “prolongation of APTT” value in the assay on rat plasma and in the assay with human plasma was “prolonged the APTT in a dose dependent manner” in each case. For the same molecule, the “incidence of thrombotic occlusion (in words)” value in the assay with rat carotid artery (FeCl3 model, rat, over all doses of Table 3) is listed as “reduction in the incidence of thrombotic occlusion”. Also, in the assay on rat carotid artery (Rattus norvegicus, read-out: ED50 for thrombus prevention), the ED50 was 0.7 mg/kg.
